According to patent US6995170B1, “Semi-hydrochloride of 8-cyano-1-cyclopropyl-7-(1S,6S-2,8-diazabicyclo[4.3.0]nonan-8-yl)-6-fluoro-1, 4-dihydro-4-oxo-3-quinolinecarboxylic acid” (Bayer Aktiengesellschaft, priority 1998, dated 2006):
Structures can show the parent of a compound that is named as a salt.

Assay: Solubility in water (strength of solutions that can be prepared)

N#Cc1c(N2C[C@@H]3CCCN[C@@H]3C2)c(F)cc2c(=O)c(C(=O)O)cn(C3CC3)c12 [CCDC hydrochloride]
strength of solutions in water that can be prepared (solubility in water): approximately 2.8 % (w/w)

N#Cc1c(N2C[C@@H]3CCCN[C@@H]3C2)c(F)cc2c(=O)c(C(=O)O)cn(C3CC3)c12 [CCDC, 8-Cyano-1-cyclopropyl-7-(1S,6S-2,8-diazabicyclo[4.3.0]nonan-8-yl)-6-fluoro-1,4-dihydro-4-oxo-3-quinolinecarboxylic acid]
strength of solutions in water that can be prepared (solubility in water): about 0.02 % (w/w)
